Among the data in PubChem BioAssay AID977613 (Broad Institute, 2014) are active concentration values, retold here.

SMILES strings stand for the structures. The source made the active and inactive calls. How the calls were made is not given here.

In the experiment the test system is Broad 7084-01 inhibitor HTS, set 2. Kind of experiment: inhibitors in Broad screen 7084-01, set 2 (AID 977613).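 Further: host cells are infected with parasite promastigotes that become internalized.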

As for `CN1CCN(C(=O)C[C@H]2CC[C@@H]3[C@H](COC[C@H](O)CN3C(=O)C3CC3)O2)CC1`, the active concentration is > 10 µM (inactive).
Take `CC(C)C#Cc1ccc([C@H]2[C@H](CO)N3C(=O)CN(C(=O)c4ccc5c(c4)OCO5)C[C@@H]23)cc1`: the active concentration is > 10 µM (inactive).
On to `COc1cccc(NC(=O)Nc2ccc3c(c2)C(=O)N(C)[C@@H]2CC[C@@H](CC(=O)NCCc4ccccc4)O[C@@H]2CO3)c1`, for which the active concentration was > 10 µM (inactive).
Turning to `COc1ccccc1C#Cc1ccc2c(c1)[C@@H]1[C@@H](CCN1C(C)=O)[C@@H](CO)N2C`, the active concentration is > 10 µM (inactive).
`COCC(=O)N1CC2(CCN(C(=O)c3ccccn3)CC2)c2c(n(C)c3cc(OC)ccc23)[C@H]1CO`: the active concentration was > 10 µM (inactive).
Under `COC(=O)[C@H]1[C@H](CO)[C@H]2Cn3c(ccc(C4=CCCCC4)c3=O)[C@H]2N1Cc1ccc2c(c1)OCO2` stands > 10 µM (inactive); under `COc1ccc2c3c(n(C)c2c1)[C@@H](CO)N(C)CC31CN(CC2CC2)C1`, > 10 µM (inactive).
On to `Cn1cnc(CCNC(=O)C[C@H]2CC[C@H]3[C@@H](COC[C@H](O)CN3C(=O)C3CC3)O2)c1`, for which the active concentration was > 10 µM (inactive).
`COCC(=O)N1[C@H](C#N)[C@@H](c2ccccc2-c2ccccc2F)[C@@H]1CO`: the active concentration is > 10 µM (inactive).
With `COc1ccccc1C(=O)Nc1ccc2c(c1)C(=O)N(C)[C@@H]1CC[C@H](CC(=O)NCCc3ccncc3)O[C@@H]1CO2`, the active concentration is > 10 µM (inactive).
For the molecule `O=C(C[C@@H]1CC[C@H]2[C@@H](COC[C@@H](O)CN2CC2CC2)O1)NCC1CC1`, the active concentration was > 10 µM (inactive).
`COc1ccc2c3c(n(C)c2c1)[C@@H](CO)N(C(=O)C1CC1)CC31CN(Cc2ccccc2OC)C1`: the active concentration was > 10 µM (inactive).
Regarding `COCC(=O)N1[C@H](CO)[C@H](c2ccccc2-c2ccc(C)cc2)[C@@H]1C#N`, the active concentration is > 10 µM (inactive).
For the molecule `CN1C(=O)c2cc(NC(=O)Cc3cccs3)ccc2OC[C@H]2O[C@H](CC(=O)N[C@@H]3CCN(Cc4ccccc4)C3)CC[C@@H]21`, the active concentration was > 10 µM (inactive).
As for `CC(C)NC(=O)N1[C@@H]2CN(C)c3ccccc3[C@@H]2[C@@H]1CO`, the active concentration was > 10 µM (inactive).
Consider `COc1ccc(C#Cc2ccc3c(c2)[C@H]2[C@H](CCN2C(=O)CN2CCOCC2)[C@H](CO)N3C)cc1`, for which the active concentration was > 10 µM (inactive).
As to `CC(C)NC(=O)Nc1ccc2c(c1)C(=O)N(C)[C@H]1CC[C@H](CC(=O)NCc3ccc(F)cc3)O[C@H]1CO2`, the active concentration is > 10 µM (inactive).
`O=C(c1cccc(F)c1)N1C[C@@H]2[C@H](c3ccccc31)[C@H](CO)N2C(=O)C1CCOCC1`: the active concentration was > 10 µM (inactive).
`COc1cccc(-c2ccc([C@H]3[C@@H](CO)N4C(=O)CN(C(=O)c5cccnc5)C[C@@H]34)cc2)c1`: the active concentration is > 10 µM (inactive).
For `C/C=C/c1ccc([C@@H]2[C@@H](CO)N3C(=O)CN(S(=O)(=O)c4ccccc4)C[C@@H]23)cc1`, the active concentration was > 10 µM (inactive).
In the case of `COc1ccc2c3c([nH]c2c1)[C@H](CO)N(C(=O)Nc1ccc(F)cc1)CC31CCN(CC2CCOCC2)CC1`, the active concentration is > 10 µM (inactive).
For `Cn1cnc(S(=O)(=O)N2C[C@H](O)COC[C@H]3O[C@@H](CC(=O)NC4CCCC4)CC[C@@H]32)c1`, the active concentration is > 10 µM (inactive).
In the case of `O=C(C[C@@H]1CC[C@H]2[C@@H](COC[C@H](O)CN2S(=O)(=O)c2ccccc2)O1)Nc1ccccc1`, the active concentration was > 10 µM (inactive).
For `Cc1ccccc1-c1ccc([C@H]2[C@H]3CN(S(=O)(=O)Cc4ccccc4)CCCCN3[C@H]2CO)cc1`, the active concentration was > 10 µM (inactive).
On to `O=C(Nc1ccccc1)N1CC(=O)N2[C@H](C1)[C@H](c1ccc(C#CC3CCCCC3)cc1)[C@@H]2CO`, for which the active concentration was > 10 µM (inactive).
As for `CC(C)C#Cc1ccc([C@@H]2[C@H](CO)N3C(=O)CN(C(=O)c4ccc5c(c4)OCO5)C[C@@H]23)cc1`, the figure is > 10 µM (inactive); as for `COc1cccc(C(=O)Nc2ccc3c(c2)C(=O)N(C)[C@H]2CC[C@@H](CC(=O)NCCCN4CCOCC4)O[C@@H]2CO3)c1`, > 10 µM (inactive).
For the molecule `O=C(Cc1ccccn1)N1CC2(C1)[C@H](c1ccccc1)[C@@H](CO)N2C(=O)c1cccnc1`, the active concentration was > 10 µM (inactive).
Under `O=C(c1ccccc1F)N1CC(=O)N2[C@@H](CO)[C@@H](c3ccc(C#Cc4ccccc4)cc3)[C@@H]2C1` stands > 10 µM (inactive); under `COc1ccccc1CN1[C@@H]2CN(C(=O)C3CCCCC3)c3ccccc3[C@@H]2[C@@H]1CO`, > 10 µM (inactive); under `CN1C(=O)c2cc(NC(=O)C3CCOCC3)ccc2OC[C@H]2O[C@@H](CC(=O)NCC3CCCCC3)CC[C@H]21`, > 10 µM (inactive).
Regarding `COc1ccc2c3c([nH]c2c1)[C@@H](CO)N(S(=O)(=O)c1cn(C)cn1)CC31CCN(CC2CCCCC2)CC1`, the active concentration is > 10 µM (inactive).
As for `CN1C(=O)c2cc(NS(C)(=O)=O)ccc2OC[C@H]2O[C@H](CC(=O)N3CCOCC3)CC[C@@H]21`, the figure is > 10 µM (inactive); as for `Cc1ccc(NC(=O)Nc2ccc3c(c2)C(=O)N(C)[C@@H]2CC[C@@H](CC(=O)NCC(F)(F)F)O[C@@H]2CO3)cc1`, > 10 µM (inactive).
For `O=C(C[C@@H]1CC[C@@H]2[C@H](COC[C@@H](O)CN2S(=O)(=O)c2ccccc2)O1)Nc1ccccc1`, the active concentration is > 10 µM (inactive).
Consider `O=C(c1cccc(F)c1)N1CCCCN2[C@H](CO)[C@@H](c3ccc(C#CC4(O)CCCC4)cc3)[C@H]2C1`, for which the active concentration is > 10 µM (inactive).
On to `O=C(NC1CCCC1)N1CCCCN2[C@H](CO)[C@H](c3ccc(-c4cccnc4)cc3)[C@H]2C1`, for which the active concentration was > 10 µM (inactive).
Regarding `O=C(C[C@H]1CC[C@@H]2[C@H](COC[C@@H](O)CN2CC2CC2)O1)NCC1CC1`, the active concentration is > 10 µM (inactive).
On to `O=S(=O)(c1ccccc1)N1CCCCN2[C@H](CO)[C@@H](c3ccc(C#CC4CCCC4)cc3)[C@H]2C1`, for which the active concentration was > 10 µM (inactive).
For the molecule `CC=Cc1ccc2n(c1=O)C[C@H]1[C@H](CO)[C@@H](C(=O)NCC)[C@@H]2N1Cc1cccc(Cl)c1` (mixture of isomers), the active concentration is > 10 µM (inactive).
As for `O=S(=O)(c1ccc(F)cc1)N1C[C@H]2[C@@H](c3ccccc31)[C@H](CO)N2Cc1ccc2c(c1)OCO2`, the active concentration was > 10 µM (inactive).
For the molecule `CN1C(=O)c2cc(NC(=O)c3cnccn3)ccc2OC[C@H]2O[C@H](CC(=O)NCC3CCCCC3)CC[C@@H]21`, the active concentration is > 10 µM (inactive).
As for `CN1CCN(C(=O)C[C@@H]2CC[C@H]3[C@@H](COC[C@@H](O)CN3CC3CC3)O2)CC1`, the active concentration was > 10 µM (inactive).
Consider `CCNC(=O)C[C@H]1CC[C@H]2[C@@H](COC[C@@H](O)CN2C(=O)C2CC2)O1`, for which the active concentration is > 10 µM (inactive).
On to `CN1C(=O)c2cc(NC(=O)c3ccc(F)c(F)c3)ccc2OC[C@H]2O[C@@H](CC(=O)N[C@H]3CCN(Cc4ccccc4)C3)CC[C@@H]21`, for which the active concentration is > 10 µM (inactive).
`O=C(C[C@@H]1CC[C@H]2[C@@H](COC[C@H](O)CN2Cc2cccc(C(F)(F)F)c2)O1)NCc1ccccc1`: the active concentration is > 10 µM (inactive).
Consider `O=C(C[C@@H]1CC[C@@H]2[C@H](COC[C@@H](O)CN2Cc2ccccc2)O1)NCCc1ccccc1`, for which the active concentration was > 10 µM (inactive).
Take `O=C(Cc1ccccc1)N1C[C@@H]2[C@H](c3ccccc31)[C@@H](CO)N2C(=O)c1cccc(F)c1`: the active concentration was > 10 µM (inactive).
Consider `O=C(c1ccccn1)N1C[C@H]2[C@@H](c3ccccc31)[C@@H](CO)N2C(=O)Nc1ccccc1F`, for which the active concentration was > 10 µM (inactive).
`CN1c2ccc(-c3cccc(F)c3)cc2[C@@H]2[C@@H](CCN2C(=O)c2ccccc2F)[C@@H]1CO`: the active concentration was > 10 µM (inactive).
`O=C(C[C@@H]1CC[C@H]2[C@@H](COC[C@@H](O)CN2S(=O)(=O)c2ccc(F)cc2)O1)NCC1CC1`: the active concentration is > 10 µM (inactive).
As for `COc1ccc2c3c([nH]c2c1)[C@@H](CO)N(S(C)(=O)=O)CC31CCN(C(=O)Nc2ccccc2)CC1`, the figure is > 10 µM (inactive); as for `C/C=C/c1ccccc1[C@@H]1[C@@H](CO)N(C(=O)CN2CCOCC2)[C@H]1C#N`, > 10 µM (inactive); as for `O=C([C@@H]1[C@@H](CO)[C@@H]2Cn3c(ccc(C4=CCCCC4)c3=O)[C@H]1N2Cc1nccs1)N1CCCCC1`, > 10 µM (inactive).
As for `COCC(=O)N1[C@@H](C#N)[C@@H](c2ccccc2-c2cccc(C)c2)[C@@H]1CO`, the active concentration is > 10 µM (inactive).
As for `O=C(c1cnccn1)N1CC(=O)N2[C@H](CO)[C@H](c3ccc(C#CC4CC4)cc3)[C@@H]2C1`, the active concentration was > 10 µM (inactive).
For the molecule `O=C(C[C@H]1CC[C@H]2[C@@H](COC[C@@H](O)CN2C(=O)Nc2ccc(C(F)(F)F)cc2)O1)NCC1CC1`, the active concentration is > 10 µM (inactive).
As for `COc1cc(CN2CC3(CCN(S(=O)(=O)c4cn(C)cn4)CC3)c3c(n(C)c4cc(OC)ccc34)[C@H]2CO)cc(OC)c1`, the figure is > 10 µM (inactive); as for `C/C=C/c1ccc([C@@H]2[C@H](CO)N(C(=O)CN(C)C)C23CN(C(=O)C2CCC2)C3)cc1`, > 10 µM (inactive).
Turning to `CN(C)C(=O)C[C@H]1CC[C@H]2[C@@H](COC[C@H](O)CN2CC2CCCC2)O1`, the active concentration is > 10 µM (inactive).
Take `COc1cccc(C#Cc2ccc([C@H]3[C@@H](CO)N4C(=O)CN(C(=O)Cc5cccnc5)C[C@H]34)cc2)c1`: the active concentration was > 10 µM (inactive).
On to `CC(=O)N1CC[C@H]2[C@@H]1c1cc(-c3ccc(C#N)cc3)ccc1N(C)[C@H]2CO`, for which the active concentration is > 10 µM (inactive).
Regarding `O=C(c1ccc2c(c1)OCO2)N1C[C@@H]2[C@H](c3ccccc31)[C@H](CO)N2C(=O)CC1CC1`, the active concentration is > 10 µM (inactive).
